# Tested on: 598228-144-R-J1-PDC complex spheroid viability
# Assay: Anticancer human tumor 598228-144-R-J1-PDC patient-derived serous endometrial adenocarcinoma cell line growth inhibition [GQUAD]
# Conditions: for IC50: curve of first compound; for viability, T/C: stronger effect = lower value
# Summary of the method: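 Viability of tumor cells grown as complex spheroids with endothelial and stromal cells, exposed to drug combinations. Top concentration at or near clinical Cmax (else 10 microM), diluted in half-log increments.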
# [1] = second compound 0.0316 µM, first compound 0.0316 µM
# [2] = second compound 0.0316 µM, first compound 0.1 µM
# [3] = second compound 0.0316 µM, first compound 0.316 µM
# [4] = second compound 0.0316 µM, first compound 1 µM
# [5] = second compound 0.0316 µM, first compound 3.16 µM
# [6] = second compound 0.0316 µM, first compound 10 µM
# [7] = second compound 0.1 µM, first compound 0.0316 µM
# [8] = second compound 0.1 µM, first compound 0.1 µM
# [9] = second compound 0.1 µM, first compound 0.316 µM
# [10] = second compound 0.1 µM, first compound 1 µM
# [11] = second compound 0.1 µM, first compound 3.16 µM
# [12] = second compound 0.1 µM, first compound 10 µM
# [13] = second compound 0.316 µM, first compound 0.0316 µM
# [14] = second compound 0.316 µM, first compound 0.1 µM
# [15] = second compound 0.316 µM, first compound 0.316 µM
# [16] = second compound 0.316 µM, first compound 1 µM
# [17] = second compound 0.316 µM, first compound 3.16 µM
# [18] = second compound 0.316 µM, first compound 10 µM
# [19] = second compound 1 µM, first compound 0.0316 µM
# [20] = second compound 1 µM, first compound 0.1 µM
# [21] = second compound 1 µM, first compound 0.316 µM
# [22] = second compound 1 µM, first compound 1 µM
# [23] = second compound 1 µM, first compound 3.16 µM
# [24] = second compound 1 µM, first compound 10 µM
# [25] = second compound 3.16 µM, first compound 0.0316 µM
# [26] = second compound 3.16 µM, first compound 0.1 µM
# [27] = second compound 3.16 µM, first compound 0.316 µM
# [28] = second compound 3.16 µM, first compound 1 µM
# [29] = second compound 3.16 µM, first compound 3.16 µM
# [30] = second compound 3.16 µM, first compound 10 µM
# [31] = second compound 10 µM, first compound 0.0316 µM
# [32] = second compound 10 µM, first compound 0.1 µM
# [33] = second compound 10 µM, first compound 0.316 µM
# [34] = second compound 10 µM, first compound 1 µM
# [35] = second compound 10 µM, first compound 3.16 µM
# [36] = second compound 10 µM, first compound 10 µM
# 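Note: spheroids exposed to the agents for one week before reading.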
# 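Throughout, for viability, T/C: percent of vehicle DMSO control viability so 100% = untreated growth.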
smiles,measurement,setting,value
O=C(NO)c1cnc(N2CCN(S(=O)(=O)c3ccc4ccccc4c3)CC2)nc1 + Cc1cnc(CNC(=O)c2c(=O)c3ccc(N4CCCN(C)CC4)nc3n3c2sc2ccccc23)cn1,IC50,second compound 0.0316 µM,0.103 µM
same,IC50,second compound 0.1 µM,0.114 µM
same,IC50,second compound 0.316 µM,0.0666 µM
same,IC50,second compound 1 µM,0.0345 µM
same,IC50,second compound 3.16 µM,< 0.0316 µM
same,IC50,second compound 10 µM,< 0.0316 µM
same,"viability, T/C",[1],92.8%
same,"viability, T/C",[2],49.6%
same,"viability, T/C",[3],22.8%
same,"viability, T/C",[4],0.83%
same,"viability, T/C",[5],0.39%
same,"viability, T/C",[6],0.19%
same,"viability, T/C",[7],80.1%
same,"viability, T/C",[8],52%
same,"viability, T/C",[9],25.3%
same,"viability, T/C",[10],1.24%
same,"viability, T/C",[11],0.16%
same,"viability, T/C",[12],0.23%
same,"viability, T/C",[13],69.4%
same,"viability, T/C",[14],38.7%
same,"viability, T/C",[15],16.6%
same,"viability, T/C",[16],0.27%
same,"viability, T/C",[17],0.14%
same,"viability, T/C",[18],0.14%
same,"viability, T/C",[19],51.6%
same,"viability, T/C",[20],30.6%
same,"viability, T/C",[21],0.25%
same,"viability, T/C",[22],0.31%
same,"viability, T/C",[23],0.15%
same,"viability, T/C",[24],0.19%
same,"viability, T/C",[25],38.1%
same,"viability, T/C",[26],0.34%
same,"viability, T/C",[27],0.31%
same,"viability, T/C",[28],0.23%
same,"viability, T/C",[29],0.19%
same,"viability, T/C",[30],0.21%
same,"viability, T/C",[31],0.42%
same,"viability, T/C",[32],0.28%
same,"viability, T/C",[33],0.56%
same,"viability, T/C",[34],0.4%
same,"viability, T/C",[35],0.29%
same,"viability, T/C",[36],0.25%
CCCS(=O)(=O)Nc1ccc(F)c(C(=O)c2c[nH]c3ncc(-c4ccc(Cl)cc4)cc23)c1F + CN(C)c1ccc(Nc2c3ccc(NC(=O)CCN4CCCC4)cc3nc3cc(NC(=O)CCN4CCCC4)ccc23)cc1,IC50,second compound 0.0316 µM,7.87 µM
same,IC50,second compound 0.1 µM,7.44 µM
same,IC50,second compound 0.316 µM,7.33 µM
same,IC50,second compound 1 µM,7.65 µM
same,IC50,second compound 3.16 µM,7.08 µM
same,IC50,second compound 10 µM,5.21 µM
same,"viability, T/C",[1],105%
same,"viability, T/C",[2],121%
same,"viability, T/C",[3],93.8%
same,"viability, T/C",[4],107%
same,"viability, T/C",[5],110%
same,"viability, T/C",[6],34.8%
same,"viability, T/C",[7],94.3%
same,"viability, T/C",[8],104%
same,"viability, T/C",[9],111%
same,"viability, T/C",[10],109%
same,"viability, T/C",[11],123%
same,"viability, T/C",[12],29.8%
same,"viability, T/C",[13],122%
same,"viability, T/C",[14],108%
same,"viability, T/C",[15],97.1%
same,"viability, T/C",[16],124%
same,"viability, T/C",[17],93.2%
same,"viability, T/C",[18],34.1%
same,"viability, T/C",[19],89.3%
same,"viability, T/C",[20],99.2%
same,"viability, T/C",[21],110%
same,"viability, T/C",[22],133%
same,"viability, T/C",[23],108%
same,"viability, T/C",[24],32.6%
same,"viability, T/C",[25],94.1%
same,"viability, T/C",[26],95.4%
same,"viability, T/C",[27],80.8%
same,"viability, T/C",[28],118%
same,"viability, T/C",[29],100%
same,"viability, T/C",[30],29.3%
same,"viability, T/C",[31],103%
same,"viability, T/C",[32],75.3%
same,"viability, T/C",[33],100%
same,"viability, T/C",[34],86.8%
same,"viability, T/C",[35],74%
same,"viability, T/C",[36],19.2%
O=c1[nH]cc(F)c(=O)[nH]1 + Cc1[nH]c2ccc(F)cc2c1-c1nc2c3cccnc3c3ncccc3c2[nH]1,IC50,second compound 0.0316 µM,> 10 µM
same,IC50,second compound 0.1 µM,> 10 µM
same,IC50,second compound 0.316 µM,> 10 µM
same,IC50,second compound 1 µM,> 10 µM
same,IC50,second compound 3.16 µM,< 0.0316 µM
same,IC50,second compound 10 µM,> 10 µM
same,"viability, T/C",[1],106%
same,"viability, T/C",[2],112%
same,"viability, T/C",[3],90.2%
same,"viability, T/C",[4],94.3%
same,"viability, T/C",[5],89.6%
same,"viability, T/C",[6],81.4%
same,"viability, T/C",[7],97.4%
same,"viability, T/C",[8],102%
same,"viability, T/C",[9],85.1%
same,"viability, T/C",[10],109%
same,"viability, T/C",[11],91.8%
same,"viability, T/C",[12],93.9%
same,"viability, T/C",[13],98.6%
same,"viability, T/C",[14],99.9%
same,"viability, T/C",[15],74.9%
same,"viability, T/C",[16],85.8%
same,"viability, T/C",[17],70.4%
same,"viability, T/C",[18],67.2%
same,"viability, T/C",[19],57.5%
same,"viability, T/C",[20],66.9%
same,"viability, T/C",[21],58%
same,"viability, T/C",[22],55.5%
same,"viability, T/C",[23],54.5%
same,"viability, T/C",[24],60.7%
same,"viability, T/C",[25],38.1%
same,"viability, T/C",[26],39.2%
same,"viability, T/C",[27],49.5%
same,"viability, T/C",[28],48.1%
same,"viability, T/C",[29],48.8%
same,"viability, T/C",[30],47%
same,"viability, T/C",[31],66.8%
same,"viability, T/C",[32],62.6%
same,"viability, T/C",[33],63.8%
same,"viability, T/C",[34],60.8%
same,"viability, T/C",[35],57.4%
same,"viability, T/C",[36],54.2%
C#Cc1c(F)ccc2cc(O)cc(-c3ncc4c(N5CC6CCC(C5)N6)nc(OCC56CCCN5CC(F)C6)nc4c3F)c12 (stereo not given) + Cc1[nH]c2ccc(F)cc2c1-c1nc2c3cccnc3c3ncccc3c2[nH]1,IC50,second compound 0.0316 µM,> 10 µM
same,IC50,second compound 0.1 µM,> 10 µM
same,IC50,second compound 0.316 µM,> 10 µM
same,IC50,second compound 1 µM,> 10 µM
same,IC50,second compound 3.16 µM,< 0.0316 µM
same,IC50,second compound 10 µM,> 10 µM
same,"viability, T/C",[1],124%
same,"viability, T/C",[2],88.7%
same,"viability, T/C",[3],120%
same,"viability, T/C",[4],100%
same,"viability, T/C",[5],114%
same,"viability, T/C",[6],111%
same,"viability, T/C",[7],121%
same,"viability, T/C",[8],126%
same,"viability, T/C",[9],97.2%
same,"viability, T/C",[10],107%
same,"viability, T/C",[11],143%
same,"viability, T/C",[12],130%
same,"viability, T/C",[13],93.7%
same,"viability, T/C",[14],87.4%
same,"viability, T/C",[15],87.9%
same,"viability, T/C",[16],102%
same,"viability, T/C",[17],115%
same,"viability, T/C",[18],98.7%
same,"viability, T/C",[19],74.7%
same,"viability, T/C",[20],59.1%
same,"viability, T/C",[21],54.3%
same,"viability, T/C",[22],59.7%
same,"viability, T/C",[23],71.9%
same,"viability, T/C",[24],62%
same,"viability, T/C",[25],37%
same,"viability, T/C",[26],51.8%
same,"viability, T/C",[27],44.6%
same,"viability, T/C",[28],40.2%
same,"viability, T/C",[29],44.2%
same,"viability, T/C",[30],31.9%
same,"viability, T/C",[31],69.2%
same,"viability, T/C",[32],62.3%
same,"viability, T/C",[33],64.3%
same,"viability, T/C",[34],58.3%
same,"viability, T/C",[35],60%
same,"viability, T/C",[36],52.8%
CC(=O)O[C@H]1C(=O)[C@@]2(C)[C@H]([C@H](OC(=O)c3ccccc3)[C@]3(O)C[C@H](OC(=O)[C@H](O)[C@@H](NC(=O)c4ccccc4)c4ccccc4)C(C)=C1C3(C)C)[C@]1(OC(C)=O)CO[C@@H]1C[C@@H]2O + CN(C)c1ccc(Nc2c3ccc(NC(=O)CCN4CCCC4)cc3nc3cc(NC(=O)CCN4CCCC4)ccc23)cc1,IC50,second compound 0.0316 µM,< 0.0316 µM
same,IC50,second compound 0.1 µM,< 0.0316 µM
same,IC50,second compound 0.316 µM,< 0.0316 µM
same,IC50,second compound 1 µM,< 0.0316 µM
same,IC50,second compound 3.16 µM,< 0.0316 µM
same,IC50,second compound 10 µM,< 0.0316 µM
same,"viability, T/C",[1],49.4%
same,"viability, T/C",[2],43.3%
same,"viability, T/C",[3],44.2%
same,"viability, T/C",[4],32.9%
same,"viability, T/C",[5],37.3%
same,"viability, T/C",[6],53.6%
same,"viability, T/C",[7],47.6%
same,"viability, T/C",[8],43.1%
same,"viability, T/C",[9],35%
same,"viability, T/C",[10],38.2%
same,"viability, T/C",[11],33.7%
same,"viability, T/C",[12],35.4%
same,"viability, T/C",[13],47.6%
same,"viability, T/C",[14],40.9%
same,"viability, T/C",[15],40.7%
same,"viability, T/C",[16],34.6%
same,"viability, T/C",[17],47%
same,"viability, T/C",[18],49.4%
same,"viability, T/C",[19],51.8%
same,"viability, T/C",[20],38.7%
same,"viability, T/C",[21],41.9%
same,"viability, T/C",[22],42.1%
same,"viability, T/C",[23],45.4%
same,"viability, T/C",[24],37%
same,"viability, T/C",[25],51.6%
same,"viability, T/C",[26],34.6%
same,"viability, T/C",[27],41.6%
same,"viability, T/C",[28],38.9%
same,"viability, T/C",[29],33.1%
same,"viability, T/C",[30],38.1%
same,"viability, T/C",[31],29.1%
same,"viability, T/C",[32],29.6%
same,"viability, T/C",[33],29.1%
same,"viability, T/C",[34],25.2%
same,"viability, T/C",[35],19.4%
same,"viability, T/C",[36],30.9%

# — PubChem BioAssay AID2060506 (Molecular Pharmacology Branch, DTP, NCI, 2025)
